# Measurements reported in ChEMBL document CHEMBL1201862, “PubChem BioAssay data set” (2004).
#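 The compound was tested at five concentrations on cells cultured in 96-well plates, with a 48-hour exposure period. GI50 marks 50% less growth.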 Activity calls are given as the source filed them. Cut-off read from the data, not from the text of the source: active = GI50 up to about 1.1 µM and inactive = higher.
# Experiments:
# Assay in all cases: growth of human tumour cells (NCI), 48 h
# SN12C = system: SN12C
# LOX IMVI = system: LOX IMVI
# 786-0 = system: 786-0
# CCRF-CEM = system: CCRF-CEM
# NCI-H522 = system: NCI-H522
# MOLT-4 = system: MOLT-4
# A498 = system: A498
# EKVX = system: EKVX
# SNB-19 = system: SNB-19
# KM-20L2 = system: KM-20L2
# SK-OV-3 = system: SK-OV-3
# SF-539 = system: SF-539
# IGROV-1 = system: IGROV-1
# RPMI-8226 = system: RPMI-8226
# HOP-62 = system: HOP-62
# UACC-257 = system: UACC-257
# HL-60 = system: HL-60
# RXF 631 = system: RXF 631
# HT-29 = system: HT-29
# SF-295 = system: SF-295
# DMS-114 = system: DMS-114
# DLD-1 = system: DLD-1
# SW-620 = system: SW-620
# SNB-78 = system: SNB-78
# M14 = system: M14
# SF-268 = system: SF-268
# M19-MEL = system: M19-MEL
# OVCAR-8 = system: OVCAR-8
# SK-MEL-5 = system: SK-MEL-5
# SK-MEL-2 = system: SK-MEL-2
# HCT-116 = system: HCT-116
# U-251 = system: U-251
# KM12 = system: KM12
# UACC-62 = system: UACC-62
# HCT-15 = system: HCT-15
# DMS-273 = system: DMS-273
# RXF 393 = system: RXF 393
# HOP-18 = system: HOP-18
# COLO 205 = system: COLO 205
# CAKI-1 = system: CAKI-1
# OVCAR-3 = system: OVCAR-3
# Malme-3M = system: Malme-3M
# SNB-75 = system: SNB-75
# OVCAR-4 = system: OVCAR-4
# HCC 2998 = system: HCC 2998
# K562 = system: K562
# ACHN = system: ACHN
# NCI-H226 = system: NCI-H226
# A549 = system: A549
# SK-MEL-28 = system: SK-MEL-28
# UO-31 = system: UO-31
# NCI-H460 = system: NCI-H460
# LXFL 529 = system: LXFL 529
# HOP-92 = system: HOP-92
# XF498 = system: XF498
# NCI-H23 = system: NCI-H23
# OVCAR-5 = system: OVCAR-5
# TK-10 = system: TK-10
compound,measurement,setting,value
O=C(NCCCN1CCN(CCCNC(=O)c2cnc3ccccc3n2)CC1)c1cnc2ccccc2n1,GI50,SN12C,> 100 µM (inactive)
same,GI50,LOX IMVI,76.6 µM (inactive)
same,GI50,786-0,> 100 µM (inactive)
same,GI50,CCRF-CEM,> 100 µM (inactive)
same,GI50,NCI-H522,90.8 µM (inactive)
same,GI50,MOLT-4,44.8 µM (inactive)
same,GI50,A498,82 µM (inactive)
same,GI50,EKVX,> 100 µM (inactive)
same,GI50,SNB-19,> 100 µM (inactive)
same,GI50,KM-20L2,> 100 µM (inactive)
same,GI50,SK-OV-3,> 100 µM (inactive)
same,GI50,SF-539,> 100 µM (inactive)
same,GI50,IGROV-1,> 100 µM (inactive)
same,GI50,RPMI-8226,> 100 µM (inactive)
same,GI50,HOP-62,> 100 µM (inactive)
same,GI50,UACC-257,> 100 µM (inactive)
same,GI50,HL-60,> 100 µM (inactive)
same,GI50,RXF 631,> 100 µM (inactive)
same,GI50,HT-29,88.3 µM (inactive)
same,GI50,SF-295,> 100 µM (inactive)
same,GI50,DMS-114,70.1 µM (inactive)
same,GI50,DLD-1,> 100 µM (inactive)
same,GI50,SW-620,> 100 µM (inactive)
same,GI50,SNB-78,> 100 µM (inactive)
same,GI50,M14,> 100 µM (inactive)
same,GI50,SF-268,> 100 µM (inactive)
same,GI50,M19-MEL,> 100 µM (inactive)
same,GI50,OVCAR-8,> 100 µM (inactive)
same,GI50,SK-MEL-5,> 100 µM (inactive)
same,GI50,SK-MEL-2,> 100 µM (inactive)
same,GI50,HCT-116,44.8 µM (inactive)
same,GI50,U-251,> 100 µM (inactive)
same,GI50,KM12,> 100 µM (inactive)
same,GI50,UACC-62,> 100 µM (inactive)
same,GI50,HCT-15,> 100 µM
same,GI50,DMS-273,> 100 µM (inactive)
same,GI50,RXF 393,> 100 µM (inactive)
same,GI50,HOP-18,> 100 µM (inactive)
same,GI50,COLO 205,> 100 µM (inactive)
same,GI50,CAKI-1,> 100 µM (inactive)
same,GI50,OVCAR-3,> 100 µM (inactive)
same,GI50,Malme-3M,> 100 µM (inactive)
same,GI50,SNB-75,> 100 µM (inactive)
same,GI50,OVCAR-4,> 100 µM (inactive)
same,GI50,HCC 2998,> 100 µM (inactive)
same,GI50,K562,> 100 µM (inactive)
same,GI50,ACHN,74.1 µM (inactive)
same,GI50,NCI-H226,86.5 µM (inactive)
same,GI50,A549,> 100 µM (inactive)
same,GI50,SK-MEL-28,> 100 µM (inactive)
same,GI50,UO-31,> 100 µM (inactive)
same,GI50,NCI-H460,> 100 µM (inactive)
same,GI50,LXFL 529,> 100 µM (inactive)
O=C1O[C@@H](c2ccccc2)C[C@@H]1CN1CCOCC1,GI50,SN12C,> 100 µM (inactive)
same,GI50,LOX IMVI,> 100 µM (inactive)
same,GI50,786-0,> 100 µM (inactive)
same,GI50,CCRF-CEM,> 100 µM (inactive)
same,GI50,NCI-H522,> 100 µM (inactive)
same,GI50,MOLT-4,> 100 µM (inactive)
same,GI50,A498,> 100 µM (inactive)
same,GI50,EKVX,> 100 µM (inactive)
same,GI50,KM-20L2,> 100 µM (inactive)
same,GI50,SK-OV-3,> 100 µM (inactive)
same,GI50,SF-539,> 100 µM (inactive)
same,GI50,IGROV-1,> 100 µM (inactive)
same,GI50,RPMI-8226,59.4 µM (inactive)
same,GI50,HOP-62,> 100 µM (inactive)
same,GI50,UACC-257,> 100 µM (inactive)
same,GI50,HL-60,> 100 µM (inactive)
same,GI50,RXF 631,> 100 µM (inactive)
same,GI50,HT-29,> 100 µM (inactive)
same,GI50,SF-295,> 100 µM (inactive)
same,GI50,DMS-114,> 100 µM (inactive)
same,GI50,DLD-1,> 100 µM (inactive)
same,GI50,HOP-92,> 100 µM (inactive)
same,GI50,SW-620,> 100 µM (inactive)
same,GI50,XF498,> 100 µM (inactive)
same,GI50,SNB-78,> 100 µM (inactive)
same,GI50,M14,> 100 µM (inactive)
same,GI50,SF-268,> 100 µM (inactive)
same,GI50,OVCAR-8,> 100 µM (inactive)
same,GI50,SK-MEL-5,> 100 µM (inactive)
same,GI50,SK-MEL-2,> 100 µM (inactive)
same,GI50,U-251,> 100 µM (inactive)
same,GI50,KM12,> 100 µM (inactive)
same,GI50,UACC-62,> 100 µM (inactive)
same,GI50,HCT-15,> 100 µM
same,GI50,NCI-H23,26.3 µM (inactive)
same,GI50,RXF 393,> 100 µM (inactive)
same,GI50,COLO 205,> 100 µM (inactive)
same,GI50,CAKI-1,65.5 µM (inactive)
same,GI50,OVCAR-3,> 100 µM (inactive)
same,GI50,Malme-3M,> 100 µM (inactive)
same,GI50,SNB-75,> 100 µM (inactive)
same,GI50,OVCAR-4,> 100 µM (inactive)
same,GI50,HCC 2998,> 100 µM (inactive)
same,GI50,OVCAR-5,> 100 µM (inactive)
same,GI50,K562,> 100 µM (inactive)
same,GI50,ACHN,> 100 µM (inactive)
same,GI50,NCI-H226,> 100 µM (inactive)
same,GI50,A549,> 100 µM (inactive)
same,GI50,SK-MEL-28,> 100 µM (inactive)
same,GI50,UO-31,> 100 µM (inactive)
same,GI50,NCI-H460,> 100 µM (inactive)
same,GI50,TK-10,> 100 µM (inactive)
same,GI50,LXFL 529,> 100 µM (inactive)
